Test results published in paper PMC5466964, “Alkyl Protocatechuate-Loaded Nanostructured Lipid Systems as a Treatment Strategy for Paracoccidioides brasiliensis and Paracoccidioides lutzii In Vitro” (Frontiers in Microbiology, 2017).
Values after ≈ are worked out from the molar mass of the structure shown. “Also recorded” adds a separate entry of the source.

How the values were obtained:
[1] = Cytotoxicity assay, 0.4% sulforhodamine B, MRC5; format: cell-based; conditions: human, MRC5 cells; for IC50 at 24 h: 24 h treatment, SRB; for viability at 24 h: at MIC, read-out: cell viability at the MIC values
Procedure: The cytotoxicity of the protocatechuates was assessed in the MRC5 cell line (MRC5) obtained from the American Type Culture Collection (ATCC; Manassas, VA, United States) and HepG2 cell line obtained from the Biotechnology Laboratory Biotech (UNICAMP, Brazil). The plates were first incubated with 1 × 10^5 cells per well at 36.5°C under 5% CO2 for 24 h to form a cell monolayer ([Husøy et al., 1993]). Compounds were tested at different concentrations ranging from 0.12 to 62.5 μg/mL using serial dilutions in a total volume of 100 μL per well. After the 24 h treatment the cytotoxicity was assessed by the 0.4% sulforhodamine B (SRB) ([Vichai and Kirtikara, 2006]). The assay is sensitive and measures the cellular protein content of adherent or suspension cultures in 96-well plates. Cells were fixed with trichloroacetic acid (TCA) and then stained for 30 min with SRB dissolved in acetic acid. In mildly acidic conditions, SRB binds on basic amino acid residues on TCA-fixed cells. The unbound dye is then removed after washing and the dye bound to the protein is solubilized in basic medium (Tris-base). The absorbance was measured at 570 nm. The result of the percentage of viable cells was performed using the following formula: according to [Rajpoot et al. (2012)] with minor modification.
Viable cells % = (test mean - hite mean/mean negative control - mean white) × 100

[2] = test system: Paracoccidioides brasiliensis S1 isolate 18 (Pb18); assay: MIC by microdilution (CLSI M27-A3 modified, alamar blue), Pb18; format: cell-based; conditions: read-out: Pb18 MIC
Procedure: (§1) Paracoccidioides brasiliensis S1 isolate 18 (Pb18-chronic PCM/São Paulo, Brazil), P. brasiliensis S2 (02-chronic PCM/Venezuela), and P. lutzii Pb01-strain ATCC MYA-826 (acute PCM/Goiânia, Brazil) were obtained from the mycology collection of the Mycology Laboratory, School of Pharmaceutical Sciences and were maintained in Fava-Netto agar medium at 37°C.
(§2) The MIC assay was performed according to the microdilution method described by Clinical and Laboratory Standards Institute ([CLSI, 2008]) document M27-A3 with modifications ([de Paula e Silva et al., 2013]). Alkyl derivatives of protocatechuic acid (hexyl, heptyl, octyl, nonyl, decyl, and dodecyl protocatechuates) were diluted according to CLSI M27-S3. The yeast suspension was adjusted to a final concentration of 1.5 × 10^3 CFU/mL in RPMI-1640 medium (Sigma–Aldrich, St. Louis, MO, United States) in 96-well plates and serial dilutions (from 250 to 0.24 μg/mL) of the compounds were then added; AMB and ITC were used as controls. The plates were incubated on a shaker at 37°C/150 rpm for a specific duration individually determined for each microorganism. The MIC was determined using alamar blue (Sigma–Aldrich, St. Louis, MO, United States) at 530 and 570 nm; a change from the original blue color of the reagent to pink […]. Following 72 or 96 h of incubation. The Minimum Fungicide Concentration (MFC) was determined by transferring an aliquot from the wells to Brain Heart Infusion (BHI) medium supplemented with 2% glucose (Difco, BD Biosciences) plates, which were then incubated at 37°C for 5–7 days. The MFC was defined as the concentration that inhibited growth ([Soares et al., 2014]).

[3] = test system: P. lutzii Pb01-strain ATCC MYA-826; assay: MIC by microdilution (CLSI M27-A3 modified, alamar blue), Pb01; format: cell-based; conditions: Paracoccidioides lutzii, read-out: Pb01 MIC
Procedure: as §1, §2

[4] = test system: P. brasiliensis S2 (02) (Pb02); assay: MIC by microdilution (CLSI M27-A3 modified, alamar blue), Pb02; format: cell-based; conditions: Paracoccidioides brasiliensis, read-out: Pb02 MIC, P. brasiliensis Pb02
Procedure: as §1, §2

[5] = test system: P. brasiliensis (Pb18) adhesion to fibronectin matrix; assay: Inhibition of P. brasiliensis 18 adhesion to artificial ECM: fibronectin; format: cell-based, Paracoccidioides brasiliensis; conditions: Pb18, 3 h adhesion, 24 h treatment
Procedure: (§3) Initially, 24-well plates were coated with ECM of fibronectin and laminin, respectively (Sigma–Aldrich, St. Louis, MO, United States) at a concentration of 50 μg/mL for 18 h at 4°C followed by incubation for 1 h at 37°C. The plates were then washed three times with PBS and fungal suspension was added at a concentration of 1.5 × 10^3 CFU/mL, which had been inoculated into the 24-well plate previously sensitized with ECM and incubated at 37°C for 1, 3, or 5 h. Subsequently, the supernatant was removed, the plate was washed with PBS, and then 300 μL of trypsin was added (Sigma). The supernatant was obtained and then centrifuged at 10,000 rpm for 5 min at (4°C). The new supernatant was discarded and 500 μL of FACS buffer was added for subsequent cell counting by flow cytometry (BD FACS Canto and BD FACS Diva software analysis). Following the adhesion period, treatment with the selected compound (dodecyl and NLS+dodecyl) was performed for 24 h at 37°C. RPMI-1640 with L-glutamine and 2% glucose was used to maintain adequate nutritional status. Subsequently, the supernatant was removed and the plate was washed with PBS. Then, 300 μL of trypsin was added and centrifuged. The supernatant was discarded and 500 μL of FACS buffer was added to each tube for subsequent cell counting by flow cytometry (BD FACS Canto and BD FACS Diva software analysis).

[6] = test system: Caenorhabditis elegans wild-type strain N2; assay: Toxicity assay in C. elegans model; format: in vivo; conditions: 24 h; for toxic effect on C. elegans survival: 0.03 to 125 μg/mL
Procedure: Caenorhabditis elegans wild-type strain N2 was routinely cultured at 22°C on nematode growth medium (NGM) plates seeded with E. coli strain OP50. For the toxicity assay, eggs were harvested to obtain synchronous cultures. After 3 days, worms in the L4 stage were washed with M9 buffer. Then, approximately 20 worms were transferred to each well of a 96-wells plate containing 100 μL of 60% M9 buffer, 40% BHI, 10 μg/mL cholesterol (in ethanol), 200 μg/mL ampicillin, and 90 μg/mL kanamycin. Next, 100 μL of dodecyl protocatechuate, NLS, or NLS+dodecyl were added to the medium with final compound concentrations in each well ranging from 0.03 to 125 μg/mL. The plate was incubated at 22°C for 24 h. Worm survival was evaluated based on mobility and form (worms with a stick shape were considered dead and worms with a sinusoidal shape were considered alive). Images were acquired using an IN Cell Analyzer 2000 (GE Healthcare), microscope (10×).

[7] = test system: P. brasiliensis (Pb18) adhesion to laminin matrix; assay: Inhibition of P. brasiliensis 18 adhesion to artificial ECM: laminin; format: cell-based, Paracoccidioides brasiliensis; conditions: Pb18, 3 h adhesion, 24 h treatment
Procedure: as §3

[8] = test system: P. brasiliensis (Pb 18) adhesion to cell line MRC5; assay: Inhibition of P. brasiliensis 18 adhesion to cells (MRC5), flow cytometry; format: cell-based, Paracoccidioides brasiliensis; conditions: Pb18 on MRC5, 3 h adhesion, 24 h treatment
Procedure: Cells (MRC5) were cultured at 36.5°C in 24-well plates and adjusted to 1 × 10^5 cells per well. A P. brasiliensis suspension (1.5 × 10^3 CFU/mL) was labeled with 10 μM of 5(6)-carboxyfluorescein diacetate N-succinimidyl ester (CFSE; Sigma–Aldrich) and then added to the cells. The plate was incubated for 3 h at 36.5°C under 5% CO2 to enable the adhesion process. Subsequent to treatment, dodecyl and NLS+dodecyl were applied and the plate was incubated for 24 h under the same conditions. The supernatant was removed and the plate was washed with PBS. Then, 300 μL of trypsin (Sigma–Aldrich,) was added and centrifuged. The supernatant was discarded and 500 μL of FACS buffer was added to each tube, for subsequent cell counting by flow cytometry (BD FACS Canto) and BD FACS Diva software analysis ([Mendes-Giannini et al., 1994], [2004]; [Hanna et al., 2000]).

| Structure (SMILES) | IC50 at 24 h [1] [µg/mL] | MIC [2] [µg/mL] | MIC [3] [µg/mL] | viability at 24 h [1] [%] | MIC [4] [µg/mL] | inhibition of adhesion to the fibronectin matrix [5] [%] | Survival percentage of C. elegans worms ([6]; 0.03 μg/mL) [%] | Survival percentage of C. elegans worms ([6]; 0.48 μg/mL) [%] | Survival percentage of C. elegans worms ([6]; 7.80 μg/mL) [%] | Survival percentage of C. elegans worms ([6]; 15.60 μg/mL) [%] | Survival percentage of C. elegans worms ([6]; 62.50 μg/mL) [%] | Survival percentage of C. elegans worms ([6]; 125.00 μg/mL) [%] | toxic effect on C. elegans survival [6] | toxic effect on C. elegans survival ([6]; listed as free dodecyl protocatechuate) | inhibition of adhesion to the laminin matrix [7] [%] | inhibition of adhesion to cells [8] [%] |
| --- | --- | --- | --- | --- | --- | --- | --- | --- | --- | --- | --- | --- | --- | --- | --- | --- |
| C[C@@H]1[C@H](O)[C@@H](C)/C=C/C=C/C=C/C=C/C=C/C=C/C=C/[C@H](O[C@@H]2O[C@H](C)[C@@H](O)[C@H](N)[C@@H]2O)C[C@@H]2O[C@](O)(C[C@@H](O)C[C@@H](O)[C@H](O)CC[C@@H](O)C[C@@H](O)CC(=O)O[C@H]1C)C[C@H](O)[C@H]2C(=O)O [AMB, Amphotericin B, reference compound] | 0.22 (≈ 0.238 µM) | 0.13 (≈ 0.141 µM) | 0.06 (≈ 0.0649 µM) | – | – | – | – | – | – | – | – | – | – | – | – | – |
| CCCCCCCCOC(=O)c1ccc(O)c(O)c1 [octyl, octyl protocatechuate] | 33.7 (≈ 127 µM) | 0.97 (≈ 3.64 µM) | 0.97 (≈ 3.64 µM) | 98 | 1.9 (≈ 7.13 µM) | – | – | – | – | – | – | – | – | – | – | – |
| CCCCCCCOC(=O)c1ccc(O)c(O)c1 [heptyl, heptyl protocatechuate] | 17.6 (≈ 69.8 µM) | 7.8 (≈ 30.9 µM) | 3.9 (≈ 15.5 µM) | 65 | 0.24 (≈ 0.951 µM) | – | – | – | – | – | – | – | – | – | – | – |
| CCCCCCCCCCCCOC(=O)c1ccc(O)c(O)c1 [dodecyl, Dodecyl protocatechuate] | 17.9 (≈ 55.5 µM) | 0.48 (≈ 1.49 µM) | 0.48 (≈ 1.49 µM) | 98 | 0.24 (≈ 0.744 µM) | 64 | 100 | 100 | 100 | 100 | 100 | 100 | neither dodecyl nor NLS+dodecyl exhibited any toxic effects; also recorded: did not affect worm survival at any concentration | neither compound exhibited a toxic effect on survival | 75 | 65 |
| CCCCCCCCCOC(=O)c1ccc(O)c(O)c1 [nonyl, nonyl protocatechuate] | 17.7 (≈ 63.1 µM) | 1.9 (≈ 6.78 µM) | 0.97 (≈ 3.46 µM) | 96 | 0.48 (≈ 1.71 µM) | – | – | – | – | – | – | – | – | – | – | – |
| CCCCCCCCCCOC(=O)c1ccc(O)c(O)c1 [decyl, decyl protocatechuate] | 16 (≈ 54.3 µM) | 0.97 (≈ 3.29 µM) | 1.9 (≈ 6.45 µM) | 98 | 0.48 (≈ 1.63 µM) | – | – | – | – | – | – | – | – | – | – | – |
| CCCCCCOC(=O)c1ccc(O)c(O)c1 [hexyl, hexyl protocatechuate] | 29.5 (≈ 124 µM) | 3.9 (≈ 16.4 µM) | 7.8 (≈ 32.7 µM) | 99 | 1.9 (≈ 7.97 µM) | – | – | – | – | – | – | – | – | – | – | – |
| CCC(C)n1ncn(-c2ccc(N3CCN(c4ccc(OCC5COC(Cn6cncn6)(c6ccc(Cl)cc6Cl)O5)cc4)CC3)cc2)c1=O (stereo not drawn) [ITC, itraconazole, reference compound] | 0.1 (≈ 0.142 µM) | 0.02 (≈ 0.0283 µM) | 0.12 (≈ 0.17 µM) | – | 0.01 (≈ 0.0142 µM) | – | – | – | – | – | – | – | – | – | – | – |
